Test results as given in US20250057959A1, “PHOSPHANE GOLD(I)-N-HETEROCYCLIC CARBENE COMPLEXES FOR TREATING CANCER” (KING FAHD UNIVERSITY OF PETROLEUM AND MINERALS, priority 2023, published 2025).
Entries after “also recorded” stand apart in the source; their conditions may differ.

How the values were obtained:
Assay type in all cases: cell-based, human
A2780 = assay: MTT cell viability assay, A2780
Excerpt: Human epithelial ovarian cancer A2780 cell line and its cisplatin-resistant clone A2780cis were obtained from Sigma-Aldrich (Milano, Italy). SKOV3 (HTB-77) cells were from the American Type Culture Collection (ATCC). The two cell lines were selected to reflect the two different stages of OvCa and different sensitivity to cisplatin. A2780 cell lines were derived from the ovarian tumor tissue of an untreated patient, while SKOV3 was from the ascitic fluids (after metastasis). Cells were authenticated in the laboratory using PowerPlex 16 HS system (Promega) and GeneMapper ID version 3.2.1 to identify DNA short tandem repeats. Cell lines were cultured in RPMI-1640 medium containing 10% fetal bovine serum (FBS) (Gibco, Thermo Fisher Scientific, U.S.A), 1% (v/v) of penicillin (10,000 units/mL)-streptomycin (10 mg/mL), and 1% (v/v) L-glutamine (200 mM) (all from Sigma- Aldrich) at 37° C. in a 5% CO2 fully humidified atmosphere. A2780cis cells were continuously exposed to 1 μM cisplatin to maintain cisplatin resistance. Adipose-derived stem cells (ADSCs) were purchased from Lonza and maintained in mesenchymal-stem-cell growth medium Bulletkit MSCGM (Lonza, Verviers, Belgium).
4.0×10^3/mL A2780, A2780cis, and SKOV3 cells were seeded in 96-well microplates in 100 μL of culture medium. Cells were allowed to adhere for 24 hours and then were treated in triplicate with increasing concentrations of gold compounds (0-1 μM). Cisplatin was included as a reference drug. Cell viability was evaluated using 3-(4,5-dimethylthiazol-2-yl)-2,5-diphenyltetrazolium bromide (MTT) assay (Sigma-Aldrich) after 72 hours of treatment. Half maximal inhibitory concentrations (IC50) were calculated using the CalcuSyn software version 2 (Biosoft, Ferguson, MO, USA). Fold resistance was calculated as the ratio of the IC50 of the A2780cis to that of the parental cell line A2780.

A2780 and A2780cis cells [1] = assay: Apoptosis by flow cytometry (annexin-V/7AAD, caspase-3,7, BAX, Bcl-2)
Method: Results were detected by flow cytometry on a BD FACSCanto II flow cytometer. Data were analyzed using BD FACSDiva version 8.0.1 software (BD Biosciences) unless otherwise indicated. To evaluate apoptosis, tumor cells were treated for 48 hours and then stained for 15 minutes with FITC annexin-V (Thermo Fisher Scientific) and 7AAD (BD Pharmingen). […] For B-cell lymphoma/leukemia-2 (Bcl-2) and Bcl-2 associated x protein (Bax) evaluation, cells were fixed and permeabilized using FIX & PERM cell fixation and cell permeabilization kit (Life Technologies). […] The distribution of cells in different cell cycle phases was quantified using ModFit LT 4.0 software (Verity Software House, Topsham, ME, USA).

A2780 and A2780cis cells [2] = assay: DNA double-strand breaks, γ-H2AX western blot
Method: Whole-cell lysates were prepared using cold RIPA buffer [150 mM NaCl, 50 mM Tris-HCl (pH 8), 0.1% SDS, 1% Igepal, and 0.5% desoxycholate sodium] containing a protease inhibitor cocktail (Roche Diagnostics S.p.a., Milan, Italy), phosphatase inhibitors 1 mM Na3VO4 and 1 mM NaF (Sigma-Aldrich). Protein concentrations were determined using the BioRad protein assay (Bio-Rad Laboratories, Inc., CA, USA). Equal amounts of proteins were mixed with Laemmli buffer, separated in 4-20% SDS-PAGE (Criterion Precast Gel, BioRad), and blotted onto a nitrocellulose membrane (Amersham, GE Healthcare). Membrane strips were blocked with EveryBilot blocking buffer (Bio-Rad) and incubated at 4° C. overnight with primary antibodies probed with the appropriate antibodies (Table 2) and developed using Immobilon Western chemioluminescent HRP substrate. Images were acquired using a ChemiDoc XRS system (Bio-Rad).

SKOV3-MCTSs = assay: SKOV3-MCTS spheroid volume; conditions: for SKOV3-MCTS volume decrease with respect to control: 0.5 μM
Method: To generate single spheroids with defined size, 1.0×10^3/mL SKOV3 cells were seeded 4 days under nonadherent conditions in U-bottom 96-well plates coated twice with 20 mg/mL of poly(2-hydroxyethyl methacrylate) (poly-HEMA; Sigma) in 95% ethanol. Spheroid size was measured at days 0, 3, and 7 after drug treatment initiation using an inverted microscope (Eclipse TS/100, Nikon, Tokyo, Japan) with photomicrographic systems DS camera control unit DS-L2. Spheroid volumes were calculated using the formula (width^2×length×3.14)/6.

CC(C)c1cccc(C(C)C)c1-n1ccn(-c2c(C(C)C)cccc2C(C)C)[c]1=[Au+][PH](C1CCCCC1)(C1CCCCC1)C1CCCCC1.F[P-](F)(F)(F)(F)F [Complex 6, [Au(IPr)(C18H33P)] PF6]
IC50 (A2780; 72 hours treatment, MTT): 140 ± 10 nM | Cytotoxic activity ranking within the series (A2780; A2780 and A2780cis, Table 8): most potent | Activity compared with cisplatin or auranofin in A2780 cells (A2780; comparison of IC50, Table 8): more active than cisplatin; also recorded: more active than auranofin | Apoptosis (annexin-V / 7AAD positive cells) (A2780 and A2780cis cells [1]; 48 hours, complex 6 and auranofin at IC50 and IC75, cisplatin 0.15 μM and 0.50 μM): increased in a dose-dependent manner | Caspase-3,7 activation (A2780 and A2780cis cells [1]; FLICA, flow cytometry): activated caspase-3,7 | BAX expression (A2780 and A2780cis cells [1]; flow cytometry): induced the proapoptotic BAX | BCL-2 expression (A2780 and A2780cis cells [1]; flow cytometry): down-regulated the antiapoptotic BCL-2 | DNA double-strand breaks (γH2AX) (A2780 and A2780cis cells [2]): induced DNA-DSBs | SKOV3-MCTS volume decrease with respect to control (SKOV3-MCTSs; 3 days): about 60% | SKOV3-MCTS volume decrease with respect to control (SKOV3-MCTSs; 7 days): about 75% | Effect on SKOV3-MCTSs at 1 μM (SKOV3-MCTSs; 1 μM): almost entirely diminished the SKOV3-MCTSs; also recorded: completely destroyed spheroids; also recorded: completely destroyed SKOV3-MCTSs
